Experimental data published in ChEMBL document CHEMBL4393707, “Synthesis and evaluation of new quinazolin-4(3H)-one derivatives as potent antibacterial agents against multidrug resistant Staphylococcus aureus and Mycobacterium tuberculosis” (Eur J Med Chem, 2019).
In brackets after ≈: the same amount, converted by molar mass. Activity calls are given as the source filed them. The calls are words filed in the database; no cut-off is given here.

How the values were obtained:
Staphylococcus aureus [1] = test: Antibacterial activity against methicillin-resistant Staphylococcus aureus NR10192 incubated for 16 to 18 hrs by broth microdilution assay; format: functional
Staphylococcus aureus [2] = test: Antimicrobial activity against Staphylococcus aureus ATCC 29213 infected in ip dosed BALB/c mouse model of neutropenic thigh infection assessed reduction in bacterial levels administered 3 hrs post infection twice at interval of 3 hrs between injections and measured after 24 hrs; format: functional, organism-based
Staphylococcus aureus [3] = test: Potentiation of levofloxacin-induced antibacterial activity against Staphylococcus aureus ATCC 29213 assessed as FIC incubated for 24 hrs by checkerboard titration assay; format: functional
Staphylococcus aureus [4] = test: Synergistic antibacterial activity against Staphylococcus aureus ATCC 29213 assessed as FIC incubated for 24 hrs in presence of daptomycin by checkerboard titration assay; format: functional
Staphylococcus aureus [5] = test: Potentiation of gentamycin-induced antibacterial activity against Staphylococcus aureus ATCC 29213 assessed as FIC incubated for 24 hrs by checkerboard titration assay; format: functional
Staphylococcus aureus [6] = test: Synergistic antibacterial activity against Staphylococcus aureus ATCC 29213 incubated for 24 hrs in presence of linezolid by checkerboard titration assay; format: functional; conditions: ATCC 29213, 24 h
Staphylococcus aureus [7] = test: Potentiation of linezolid-induced antibacterial activity against Staphylococcus aureus ATCC 29213 assessed as linezolid MIC incubated for 24 hrs by checkerboard titration assay (reference value: 2 ug/ml); format: functional; conditions: ATCC 29213, 24 h
Staphylococcus aureus [8] = test: Antimicrobial activity against Staphylococcus aureus ATCC 29213 infected in BALB/c mouse model of neutropenic thigh infection assessed reduction in bacterial levels in thigh at 50 mg/kg, ip administered 3 hrs post infection twice at interval of 3 hrs between injections and measured after 24 hrs; format: functional, organism-based
Staphylococcus aureus [9] = test: Synergistic antibacterial activity against Staphylococcus aureus ATCC 29213 incubated for 24 hrs in presence of minocycline by checkerboard titration assay; format: functional; conditions: ATCC 29213, 24 h
[10] = system: Mycobacterium tuberculosis; test: Antitubercular activity against Mycobacterium tuberculosis H37Rv after 7 days by resazurin dye based assay; format: functional; conditions: 168 h
Staphylococcus aureus [11] = test: Synergistic antibacterial activity against Staphylococcus aureus ATCC 29213 assessed as sum of FIC for test compound in presence of gentamycin and FIC for gentamycin in presence of test compound incubated for 24 hrs by checkerboard titration assay; format: functional
Staphylococcus aureus [12] = test: Synergistic antibacterial activity against Staphylococcus aureus ATCC 29213 assessed as FIC incubated for 24 hrs in presence of rifampicin by checkerboard titration assay; format: functional
Staphylococcus aureus [13] = test: Potentiation of minocycline-induced antibacterial activity against Staphylococcus aureus ATCC 29213 assessed as minocycline MIC incubated for 24 hrs by checkerboard titration assay (reference value: 0.125 ug/ml); format: functional; conditions: ATCC 29213, 24 h
Staphylococcus aureus [14] = test: Synergistic antibacterial activity against Staphylococcus aureus ATCC 29213 assessed as FIC incubated for 24 hrs in presence of minocycline by checkerboard titration assay; format: functional
Staphylococcus aureus [15] = test: Synergistic antibacterial activity against Staphylococcus aureus ATCC 29213 incubated for 24 hrs in presence of rifampicin by checkerboard titration assay; format: functional; conditions: ATCC 29213, 24 h
Staphylococcus aureus [16] = test: Potentiation of vancomycin-induced antibacterial activity against Staphylococcus aureus ATCC 29213 assessed as vancomycin MIC incubated for 24 hrs by checkerboard titration assay (reference value: 1 ug/ml); format: functional; conditions: ATCC 29213, 24 h
Staphylococcus aureus [17] = test: Antibacterial activity against Staphylococcus aureus ATCC 29213 assessed as time required to increase 1 log10 CFU at 10 times MIC incubated for 1 hr followed by compound washout and measured at 1 hr intervals (reference value: 2 hrs); format: functional
Staphylococcus aureus [18] = test: Antibacterial activity against methicillin-resistant Staphylococcus aureus NR10191 incubated for 16 to 18 hrs by broth microdilution assay; format: functional
Staphylococcus aureus [19] = test: Synergistic antibacterial activity against Staphylococcus aureus ATCC 29213 incubated for 24 hrs in presence of levofloxacin by checkerboard titration assay; format: functional; conditions: ATCC 29213, 24 h
Staphylococcus aureus [20] = test: Synergistic antibacterial activity against Staphylococcus aureus ATCC 29213 incubated for 24 hrs in presence of vancomycin by checkerboard titration assay; format: functional; conditions: ATCC 29213, 24 h
Pseudomonas aeruginosa = test: Antibacterial activity against Pseudomonas aeruginosa ATCC 27853 incubated for 16 to 18 hrs by broth microdilution assay; format: functional
Staphylococcus aureus [21] = test: Antibacterial activity against methicillin-resistant Staphylococcus aureus NR10129 incubated for 16 to 18 hrs by broth microdilution assay; format: functional
Staphylococcus aureus [22] = test: Antibiofilm activity against Staphylococcus aureus ATCC 29213 at 10 times MIC incubated 48 hrs by crystal violet staining based assay relative to control; format: functional
Staphylococcus aureus [23] = test: Antibacterial activity against Staphylococcus aureus ATCC 29213 assessed as post antibiotic effect time at 10 times MIC incubated for 1 hr followed by compound washout and measured at 1 hr intervals (reference value: 0 hrs); format: functional
Staphylococcus aureus [24] = test: Synergistic antibacterial activity against Staphylococcus aureus ATCC 29213 incubated for 24 hrs in presence of gentamycin by checkerboard titration assay; format: functional; conditions: ATCC 29213, 24 h
Escherichia coli = test: Antibacterial activity against Escherichia coli ATCC 25922 incubated for 16 to 18 hrs by broth microdilution assay; format: functional
Staphylococcus aureus [25] = test: Antimicrobial activity against Staphylococcus aureus ATCC 29213 infected in BALB/c mouse model of neutropenic thigh infection assessed reduction in bacterial levels in thigh at 25 mg/kg, ip administered 3 hrs post infection twice at interval of 3 hrs between injections and measured after 24 hrs; format: functional, organism-based
Klebsiella pneumoniae = test: Antibacterial activity against Klebsiella pneumoniae ATCC BAA-1705 incubated for 16 to 18 hrs by broth microdilution assay; format: functional
Staphylococcus aureus [26] = test: Antibacterial activity against methicillin-resistant Staphylococcus aureus NR119 incubated for 16 to 18 hrs by broth microdilution assay; format: functional
Staphylococcus aureus [27] = test: Synergistic antibacterial activity against Staphylococcus aureus ATCC 29213 assessed as sum of FIC for test compound in presence of minocycline and FIC for minocycline in presence of test compound incubated for 24 hrs by checkerboard titration assay; format: functional
Staphylococcus aureus [28] = test: Potentiation of ceftazidime-induced antibacterial activity against Staphylococcus aureus ATCC 29213 assessed as FIC incubated for 24 hrs by checkerboard titration assay; format: functional
Staphylococcus aureus [29] = test: Potentiation of vancomycin-induced antibacterial activity against Staphylococcus aureus ATCC 29213 assessed as FIC incubated for 24 hrs by checkerboard titration assay; format: functional
Staphylococcus aureus [30] = test: Antibacterial activity against Staphylococcus aureus ATCC 29213 assessed as post antibiotic effect time at MIC incubated for 1 hr followed by compound washout and measured at 1 hr intervals (reference value: 0 hrs); format: functional
Staphylococcus aureus [31] = test: Synergistic antibacterial activity against Staphylococcus aureus ATCC 29213 incubated for 24 hrs in presence of meropenem by checkerboard titration assay; format: functional; conditions: ATCC 29213, 24 h
Staphylococcus aureus [32] = test: Antibacterial activity against Staphylococcus aureus ATCC 29213 assessed as time required to increase 1 log10 CFU at MIC incubated for 1 hr followed by compound washout and measured at 1 hr intervals (reference value: 2 hrs); format: functional
[33] = Selectivity index, ratio of CC50 for African green monkey Vero cells to MIC for Mycobacterium tuberculosis H37Rv; format: toxicity; conditions: read-out: Selectivity Index

Row | SMILES | MIC (Staphylococcus aureus [1]) | FIC (Staphylococcus aureus [3]) | FIC (Staphylococcus aureus [4]) | FIC (Staphylococcus aureus [5]) | MIC (Staphylococcus aureus [6]) | MIC (Staphylococcus aureus [7]) | MIC (Staphylococcus aureus [9]) | MIC [10] | FIC (Staphylococcus aureus [11]) | FIC (Staphylococcus aureus [12]) | MIC (Staphylococcus aureus [13]) | FIC (Staphylococcus aureus [14]) | MIC (Staphylococcus aureus [15]) | MIC (Staphylococcus aureus [16]) | MIC (Staphylococcus aureus [18]) | MIC (Staphylococcus aureus [19]) | MIC (Staphylococcus aureus [20]) | MIC (Pseudomonas aeruginosa) | MIC (Staphylococcus aureus [21]) | MIC (Staphylococcus aureus [24]) | also measured
1 | N#Cc1ccc(/C=C/c2nc3ccccc3c(=O)n2-c2ccc(C(=O)O)c(O)c2)cc1 | < 125 ng/mL | 0.003 | 0.032 | 0.007 | 1.9 ng/mL | 7.5 ng/mL | 1.9 ng/mL | 64000 ng/mL (≈ 156 µM) | 0.04 | 0.032 | 0.9 ng/mL | 0.032 | 1.9 ng/mL | 3.9 ng/mL | < 125 ng/mL | 1.9 ng/mL | 1.9 ng/mL | > 64000 ng/mL | < 125 ng/mL | 1.9 ng/mL | Activity (Staphylococcus aureus [2]): Dose-dependent effect; Activity (Staphylococcus aureus [8]): Active; Time (Staphylococcus aureus [17]): 4 h; Activity (Staphylococcus aureus [22]): 14.1%; Time (Staphylococcus aureus [23]): 2 h; MIC (Escherichia coli): > 64000 ng/mL; Activity (Staphylococcus aureus [25]): Active; MIC (Klebsiella pneumoniae): > 64000 ng/mL; MIC (Staphylococcus aureus [26]): 125 to 250 ng/mL (≈ 0.305 to 0.611 µM); FIC (Staphylococcus aureus [27]): 0.039; FIC (Staphylococcus aureus [28]): 0.0019; FIC (Staphylococcus aureus [29]): 0.003; Time (Staphylococcus aureus [30]): 0 h; MIC (Staphylococcus aureus [31]): 1.9 ng/mL; Time (Staphylococcus aureus [32]): 2 h
2 | N#Cc1ccc(/C=C/c2nc3cccc(F)c3c(=O)n2-c2cccc(O)c2)cc1 | < 125 ng/mL | 0.0036 | 0.0625 | 0.0078 | 7.8 ng/mL | 7.5 ng/mL | 7.8 ng/mL | 8000 ng/mL (≈ 20.9 µM) | 0.0703 | 0.0625 | 0.9 ng/mL | 0.0625 | 7.8 ng/mL | 3.9 ng/mL | < 125 ng/mL | 7.8 ng/mL | 7.8 ng/mL | > 64000 ng/mL | < 125 ng/mL | 7.8 ng/mL | selectivity ratio [33]: > 12.5; MIC (Escherichia coli): > 64000 ng/mL; MIC (Klebsiella pneumoniae): > 64000 ng/mL; MIC (Staphylococcus aureus [26]): < 125 ng/mL; FIC (Staphylococcus aureus [27]): 0.0697; FIC (Staphylococcus aureus [28]): 0.0039; FIC (Staphylococcus aureus [29]): 0.0039; MIC (Staphylococcus aureus [31]): 7.8 ng/mL
